Results as given in article PMC11445358 (Applied Microbiology and Biotechnology, 2024).
Residues, ends and D or L forms follow the SMILES beside them. *: point of attachment. Cbz = O=C(OCc1ccccc1)*

Target: T1, microbial transglutaminase (MTG) (Streptomyces mobaraensis, UniProt P81453)
T1 sequence (P81453 77-407): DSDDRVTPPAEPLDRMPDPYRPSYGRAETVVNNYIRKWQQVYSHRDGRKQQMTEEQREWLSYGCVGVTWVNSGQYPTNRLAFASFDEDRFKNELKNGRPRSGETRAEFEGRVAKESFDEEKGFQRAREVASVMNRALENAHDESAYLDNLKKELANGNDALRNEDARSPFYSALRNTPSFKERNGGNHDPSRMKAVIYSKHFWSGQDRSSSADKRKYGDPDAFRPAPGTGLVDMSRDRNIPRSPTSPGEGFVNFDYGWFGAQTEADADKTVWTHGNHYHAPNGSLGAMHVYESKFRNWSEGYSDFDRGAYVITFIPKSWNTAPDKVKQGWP
Assay: colorimetric hydroxamate assay, absorbance at […] nm
Format: biochemical
Conditions: 37 °C, 10 min; hydroxamate formation

**Q.** How did the specific activity turn out when `NC(=O)CC[C@H](NC(=O)OCc1ccccc1)C(=O)NCC(=O)O` [Z-QG, N-carbobenzoxy-L-glutaminylglycine] (Cbz-Gln-Gly-OH) was run?
**A.** The specific activity was “specific MTG activity was measured with a colorimetric hydroxamate procedure using N-carbobenzoxy-L-glutaminylglycine (Z-QG)”.
